Data as given in paper PMC6017357, “In Vitro Inhibitory Effects of Synthetic Cannabinoid EAM-2201 on Cytochrome P450 and UDP-Glucuronosyltransferase Enzyme Activities in Human Liver Microsomes” (Molecules : A Journal of Synthetic Chemistry and Natural …, 2018).

Target: T1, UGT1A4 (Homo sapiens, UniProt P22310)
T1 construct: ultrapooled human liver microsomes (0.2 mg/mL), 5 mM UDPGA; from tissue; host or cells: ultrapooled human liver microsomes
T1 sequence (P22310 29-534): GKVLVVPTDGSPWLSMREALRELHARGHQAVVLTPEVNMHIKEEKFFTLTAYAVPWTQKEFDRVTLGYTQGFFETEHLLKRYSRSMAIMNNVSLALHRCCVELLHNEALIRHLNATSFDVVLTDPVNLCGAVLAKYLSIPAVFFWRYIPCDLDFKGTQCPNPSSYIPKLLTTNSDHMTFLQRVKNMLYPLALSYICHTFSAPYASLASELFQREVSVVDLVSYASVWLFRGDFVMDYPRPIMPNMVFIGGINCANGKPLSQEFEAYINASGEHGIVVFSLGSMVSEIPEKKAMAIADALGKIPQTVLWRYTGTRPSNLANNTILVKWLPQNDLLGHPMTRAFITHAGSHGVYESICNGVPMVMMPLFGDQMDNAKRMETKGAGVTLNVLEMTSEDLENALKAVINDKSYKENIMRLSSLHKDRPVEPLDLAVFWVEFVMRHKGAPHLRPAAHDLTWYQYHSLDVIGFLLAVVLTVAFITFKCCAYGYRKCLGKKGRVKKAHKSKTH
Assay: UGT1A4-catalyzed trifluoperazine N-glucuronidation in human liver microsomes
Type: in vitro ADME
Conditions: at 50 µM
Method: The inhibitory effects of EAM-2201 on UGT1A1, UGT1A3, UGT1A4, UGT1A6, UGT1A9 and UGT2B7 were evaluated using LC-MS/MS and the cocktail of UGT substrates as previously described. Each incubation mixture was prepared in a final volume of 100 µL as follows: ultrapooled human liver microsomes (0.2 mg/mL), 5 mM UDPGA, 10 mM magnesium chloride, alamethicin (25 µg/mL), 50 mM Tris buffer (pH 7.4), various concentrations of EAM-2201 in DMSO (final concentrations of 1–50 µM, 0.5% DMSO) and the UGT enzyme-specific substrates of two cocktail sets (set A: 0.5 µM SN-38, 2 µM chenodeoxycholic acid and 0.5 µM trifluoperazine; set B: 1 µM N-acetylserotonin, 0.2 µM mycophenolic acid and 1 µM naloxone, acetonitrile content, 0.5%). […] Supernatant from sets A and B (50 µL of each) was mixed and aliquots (5 µL) were analyzed by LC-MS/MS. […]
The metabolites formed from the six UGT cocktail substrates were simultaneously measured using LC-MS/MS [41]. […] Each metabolite was quantified via SRM in the negative ion mode: chenodeoxycholic acid 24-acyl-β-glucuronide, 567.2 > 391.0; mycophenolic acid glucuronide, 495.2 > 318.9; and propofol glucuronide (IS), 353.3 > 177.1; and in the positive ion mode: SN-38 glucuronide, 569.0 > 393.0; trifluoperazine glucuronide, 584.2 > 408.1; N-acetylserotonin-β-D-glucuronide, 395.2 > 219.0; naloxone 3-β-D-glucuronide, 504.0 > 310.0; and meloxicam (IS), 352.0 > 115.1. […]

Q: With `CCc1ccc(C(=O)c2cn(CCCCCF)c3ccccc23)c2ccccc12` [EAM-2201, (4-ethyl-1-naphthalenyl)[1-(5-fluoropentyl)-1H-indol-3-yl]-methanone] as the compound, how does the “inhibition of UGT1A4-catalyzed trifluoperazine N-glucuronidation” value read?
A: The value was “negligibly inhibited”.
